Measured values from patent US9758537B2 (Achillion Pharmaceuticals, Inc., priority 2014, dated 2017).

target: Human factor D (Homo sapiens (Human), UniProt P00746); test: Human Factor D Assay; format: biochemical; conditions: human factor D 80 nM, substrate Z-L-Lys-SBzl, DTNB, OD405
Method: Human factor D (purified from human serum, Complement Technology, Inc.) at 80 nM final concentration is incubated with test compound at various concentrations for 5 minutes at room temperature in 50 mM Tris, 1M NaCl, pH 7.5. A synthetic substrate Z-L-Lys-SBzl and DTNB (Ellman's reagent) are added to final concentrations of 10 μM each. The increase in color is recorded at OD405 nm in a microplate in kinetic mode over 30 minutes with 30 second time points in a […]. IC50 values are calculated by non-linear regression from the percentage of inhibition of complement factor D activity as a function of test compound concentration.

Sequence of Human factor D (P00746 26-253): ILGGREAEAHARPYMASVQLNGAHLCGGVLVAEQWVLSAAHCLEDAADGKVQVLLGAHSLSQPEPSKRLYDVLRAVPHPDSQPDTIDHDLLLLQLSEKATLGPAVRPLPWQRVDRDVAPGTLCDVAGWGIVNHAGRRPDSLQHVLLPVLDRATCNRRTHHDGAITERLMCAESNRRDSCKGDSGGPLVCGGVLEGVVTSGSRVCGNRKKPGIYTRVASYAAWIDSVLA

| SMILES | IC50 [nM] |
| --- | --- |
| CC(=O)c1cn(CC(=O)N2C[C@H](F)C[C@H]2C(=O)Nc2cccc(-c3cc(F)c(F)cc3Cl)c2F)c2ccccc12 [Compound 82, (2S,4R)-1-(2-(3-acetyl-1H-indol-1-yl)acetyl)-N-(2′-chloro-2,4′,5′-trifluorobiphenyl-3-yl)-4-fluoropyrrolidine-2-carboxamide] | < 1000 |
| Cc1cc2c(s1)c(C(N)=O)nn2CC(=O)N1C[C@H](F)C[C@H]1C(=O)Nc1cccc(Br)n1 [Compound 118, 1-(2-((2S,4R)-2-(6-bromopyridin-2-ylcarbamoyl)-4-fluoropyrrolidin-1-yl)-2-oxoethyl)-5-methyl-1H-thieno[3,2-c]pyrazole-3-carboxamide] | < 1000 |
| CC(=O)c1cn(CC(=O)N2C[C@H](F)[C@@H](OCC3CC3)[C@H]2C(=O)NCc2cccc(Cl)c2F)c2cc(O)ccc12 [Compound 21, (2S,3S,4S)-1-(2-(3-acetyl-6-hydroxy-1H-indol-1-yl)acetyl)-N-(3-chloro-2-fluorobenzyl)-3-(cyclopropylmethoxy)-4-fluoropyrrolidine-2-carboxamide] | < 1000 |
| NC(=O)c1nn(CC(=O)N2[C@@H]3C[C@@H]3C[C@H]2C(=O)Nc2cccc(-c3ccccc3Cl)c2F)cc1Br [Compound 77, (1R,3S,5R)-2-(2-(4-bromo-3-carbamoyl-1H-pyrazol-1-yl)acetyl)-N-(2′-chloro-2-fluorobiphenyl-3-yl)-2-azabicyclo[3.1.0]hexane-3-carboxamide] | < 1000 |
| O=C(NCc1cccc(Cl)c1F)[C@@H]1C[C@@H](F)CN1C(=O)Cn1nc(-c2cn[nH]c2)c2ccncc21 [Compound 73, (2S,4R)-1-(2-(3-(1H-pyrazol-4-yl)-1H-pyrazolo[3,4-c]pyridin-1-yl)acetyl)-N-(3-chloro-2-fluorobenzyl)-4-fluoropyrrolidine-2-carboxamide] | < 1000 |
| NC(=O)n1cc(NC(=O)N2C[C@H](F)C[C@H]2Cn2cc(-c3ccc(F)cc3)nn2)c2ccccc21 [Compound 28, 3-((2S,4R)-4-fluoro-2-((4-(4-fluorophenyl)-1H-1,2,3-triazol-1-yl)methyl)pyrrolidine-1-carboxamido)-1H-indole-1-carboxamide] | > 10000 |
| CC(=O)c1cn(CC(=O)N2C[C@H](F)C[C@H]2C(=O)N(C)Cc2cccc(Cl)c2F)c2ccccc12 [Compound 34, (2S,4R)-1-(2-(3-acetyl-1H-indol-1-yl)acetyl)-N-(3-chloro-2-fluorobenzyl)-4-fluoro-N-methylpyrrolidine-2-carboxamide] | > 10000 |
| NC(=O)c1nn(CC(=O)N2C[C@H](F)C[C@H]2C(=O)Nc2cccc(-c3ccccc3Cl)c2F)c2ccsc12 [Compound 99, 1-(2-((2S,4R)-2-(2′-chloro-2-fluorobiphenyl-3-ylcarbamoyl)-4-fluoropyrrolidin-1-yl)-2-oxoethyl)-1H-thieno[3,2-c]pyrazole-3-carboxamide] | < 1000 |
| NC(=O)c1nn(CC(=O)N2C[C@H](F)C[C@H]2C(=O)Nc2cccc(Br)n2)c2ccsc12 [Compound 106, 1-(2-((2S,4R)-2-(6-bromopyridin-2-ylcarbamoyl)-4-fluoropyrrolidin-1-yl)-2-oxoethyl)-1H-thieno[3,2-c]pyrazole-3-carboxamide] | < 1000 |
| CC(=O)c1cn(C(C)C(=O)N2C[C@H](F)C[C@H]2C(=O)NCc2cccc(Cl)c2F)c2ccccc12 (some centres unmarked) [Compound 55] | > 10000 |
| CC(=O)c1cn(CC(=O)N2C[C@H](F)C[C@H]2c2nc3cc(Cl)ccc3[nH]2)c2ccccc12 [Compound 15, 2-(3-acetyl-1H-indol-1-yl)-1-((2S,4R)-2-(5-chloro-1H-benzo[d]imidazol-2-yl)-4-fluoropyrrolidin-1-yl)ethanone] | > 10000 |
| NC(=O)c1nn(CC(=O)N2C[C@H](F)C[C@H]2C(=O)Nc2cccc(-c3ccccc3Cl)c2F)c2c1CCCC2 [Compound 104, 1-(2-((2S,4R)-2-(2′-chloro-2-fluorobiphenyl-3-ylcarbamoyl)-4-fluoropyrrolidin-1-yl)-2-oxoethyl)-4,5,6,7-tetrahydro-1H-indazole-3-carboxamide] | < 1000 |
| O=C(c1cn(CC(=O)N2[C@@H]3C[C@@H]3C[C@H]2C(=O)NCc2cccc(Cl)c2F)c2ccccc12)C1CC1 [Compound 22, (1R,3S,5R)-N-(3-chloro-2-fluorobenzyl)-2-(2-(3-(cyclopropanecarbonyl)-1H-indol-1-yl)acetyl)-2-azabicyclo[3.1.0]hexane-3-carboxamide] | < 1000 |
| CC(=O)c1cn(CC(=O)N2C[C@H](F)C[C@H]2C(=O)Nc2cccc(-c3cc(F)cc(F)c3Cl)c2F)c2ccccc12 [Compound 95, (2S,4R)-1-(2-(3-acetyl-1H-indol-1-yl)acetyl)-N-(2′-chloro-2,3′,5′-trifluorobiphenyl-3-yl)-4-fluoropyrrolidine-2-carboxamide] | < 1000 |
| COc1ncc(-c2cn(CC(=O)N3C[C@H](F)C[C@H]3C(=O)Nc3cccc(-c4ccccc4Cl)c3F)nc2C(N)=O)cn1 [Compound 110, 1-(2-((2S,4R)-2-(2′-chloro-2-fluorobiphenyl-3-ylcarbamoyl)-4-fluoropyrrolidin-1-yl)-2-oxoethyl)-4-(2-methoxypyrimidin-5-yl)-1H-pyrazole-3-carboxamide] | > 10000 |
| NC(=O)c1nn(CC(=O)N2C[C@H](F)C[C@H]2C(=O)Nc2cccc(-c3c(F)cc(F)cc3Cl)n2)c2cnccc12 [Compound 100, 1-(2-((2S,4R)-2-(6-(2-chloro-4,6-difluorophenyl)pyridin-2-ylcarbamoyl)-4-fluoropyrrolidin-1-yl)-2-oxoethyl)-1H-pyrazolo[3,4-c]pyridine-3-carboxamide] | < 1000 |
| NC(=O)N1C[C@H](F)C[C@H]1Cn1cc(-c2ccc(F)c(Cl)c2)nn1 [Compound 30, (2S,4R)-2-((4-(3-chloro-4-fluorophenyl)-1H-1,2,3-triazol-1-yl)methyl)-4-fluoropyrrolidine-1-carboxamide] | > 10000 |
| CC(=O)c1cn(CC(=O)N2[C@@H]3CCC[C@@H]3C[C@H]2C(=O)NCc2cccc(Cl)c2F)c2cc(O)ccc12 [Compound 62] | < 1000 |
| N#Cc1cn(CC(=O)N2C[C@H](F)C[C@H]2C(=O)NCc2cccc(Cl)c2F)c2ccccc12 [Compound 36, (2S,4R)-N-(3-chloro-2-fluorobenzyl)-1-(2-(3-cyano-1H-indol-1-yl)acetyl)-4-fluoropyrrolidine-2-carboxamide] | < 1000 |
| CC(=O)c1cn(CC(=O)N2C[C@H](F)C[C@H]2C(=O)Nc2cccc(Br)n2)c2ccc(C3(N4C(=O)c5ccccc5C4=O)CC3)cc12 [Compound 81, (2S,4R)-1-(2-(3-acetyl-5-(1-(1,3-dioxoisoindolin-2-yl)cyclopropyl)-1H-indol-1-yl)acetyl)-N-(6-bromopyridin-2-yl)-4-fluoropyrrolidine-2-carboxamide] | < 1000 |
| O=C(NCc1cccc(Cl)c1F)[C@@H]1C[C@@H](F)CN1C(=O)Cn1c2c(c3ccccc31)CCNC2 [Compound 68, (2S,4R)-N-(3-chloro-2-fluorobenzyl)-1-(2-(3,4-dihydro-1H-pyrido[3,4-b]indol-9(2H)-yl)acetyl)-4-fluoropyrrolidine-2-carboxamide] | > 10000 |
| NC(=O)c1nn(CC(=O)N2C[C@H](F)C[C@H]2C(=O)Nc2cccc(-c3cc(OC(F)(F)F)ccc3Cl)c2F)c2ccccc12 [Compound 120, 1-(2-((2S,4R)-2-(2′-chloro-2-fluoro-5′-(trifluoromethoxy)biphenyl-3-ylcarbamoyl)-4-fluoropyrrolidin-1-yl)-2-oxoethyl)-1H-indazole-3-carboxamide] | < 1000 |
| CC(=O)c1cn(CC(=O)N2C[C@H](F)C[C@H]2C(=O)Nc2cccc(-c3ccccc3Cl)c2F)c2c(C3CC3)cccc12 [Compound 115, (2S,4R)-1-(2-(3-acetyl-7-cyclopropyl-1H-indol-1-yl)acetyl)-N-(2′-chloro-2-fluorobiphenyl-3-yl)-4-fluoropyrrolidine-2-carboxamide] | < 1000 |
| CCOP(=O)(OCC)c1cc(Cl)c(F)c(CNC(=O)[C@@H]2C[C@@H](F)CN2C(=O)Cn2cc(C(C)=O)c3ccccc32)c1 [Compound 61] | < 1000 |
| CC(=O)c1cn(CC(=O)N2CC[C@@H](OCC3CC3)[C@H]2C(=O)NCc2cccc(Cl)c2F)c2ccccc12 [Compound 18, (2S,3R)-1-(2-(3-acetyl-1H-indol-1-yl)acetyl)-N-(3-chloro-2-fluorobenzyl)-3-(cyclopropylmethoxy) pyrrolidine-2-carboxamide] | < 1000 |
| O=C(NCc1cccc(Cl)c1F)[C@@H]1C[C@@H](F)CN1C(=O)Cn1nc(-c2cnc[nH]2)c2ccncc21 [Compound 75, (2S,4R)-1-(2-(3-(1H-imidazol-5-yl)-1H-pyrazolo[3,4-c]pyridin-1-yl)acetyl)-N-(3-chloro-2-fluorobenzyl)-4-fluoropyrrolidine-2-carboxamide] | < 1000 |
| CC(=O)c1cn(CC(=O)N2CC(F)C(OCC3CC3)[C@H]2C(=O)NCc2cccc(Cl)c2F)c2cc(O)ccc12 (stereo partly drawn) [Compound 25, (2S)-1-(2-(3-acetyl-6-hydroxy-1H-indol-1-yl)acetyl)-N-(3-chloro-2-fluorobenzyl)-3-(cyclopropylmethoxy)-4-fluoropyrrolidine-2-carboxamide] | < 1000 |
| O=C(NCc1cccc(Cl)c1F)[C@@H]1C[C@@H](F)CN1C(=O)Cn1cc([N+](=O)[O-])c2ccccc21 [Compound 46, (2S,4R)-N-(3-chloro-2-fluorobenzyl)-4-fluoro-1-(2-(3-nitro-1H-indol-1-yl)acetyl)pyrrolidine-2-carboxamide] | < 1000 |
| CC(C)(C)OC(=O)N1CCc2c(n(CC(=O)N3C[C@H](F)C[C@H]3C(=O)NCc3cccc(Cl)c3F)c3ccccc23)C1 [Compound 67, tert-butyl 9-(2-((2S,4R)-2-(3-chloro-2-fluorobenzylcarbamoyl)-4-fluoropyrrolidin-1-yl)-2-oxoethyl)-3,4-dihydro-1H-pyrido[3,4-b]indole-2(9H)-carboxylate] | > 10000 |
